The results in this text go back to paper PMC5887109, “Unravelling the Molecular Determinants of Bee Sensitivity to Neonicotinoid Insecticides” (Current Biology, 2018).

Data set [1] concerns the target CYP9Q4 (Bombus terrestris, UniProt A0A9B0BBT5). The data set is described as follows: Metabolism by recombinant CYP9Q4/CPR microsomes, LC-MS/MS. The source says:
(§1) All bee P450 (see Table S3 for accession numbers) and house fly NADPH-dependent cytochrome P450 reductase (CPR) (GenBank accession number Q07994) genes were obtained by gene synthesis (Geneart, CA, USA) and inserted into the pDEST8 expression vector (Invitrogen). Codon optimization of all bee genes was used to optimize expression in lepidopteran cell lines. The PFastbac1 vector with no inserted DNA was used to produce a control virus. The recombinant baculovirus DNA was constructed and transfected into Trichoplusia ni (High five cells, Thermo Fisher) using the Bac-to-Bac baculovirus expression system (Invitrogen) according to the manufacturer’s instructions. The titer of the recombinant virus was determined following protocols of the supplier. High Five cells grown to a density of 2 × 10^6 cells ml^-1 were co-infected with recombinant baculoviruses containing each bee P450 and CPR with a range of MOI (multiplicity of infection) ratios to identify the optimal conditions. Control cells were co-infected with the baculovirus containing vector with no insert (ctrl-virus) and the recombinant baculovirus expressing CPR using the same MOI ratios. Ferric citrate and δ-aminolevulinic acid hydrochloride were added to a final concentration of 0.1 mM at the time of infection and 24 h after infection to compensate the low levels of endogenous heme in the insect cells. After 48 h, cells were harvested, washed with PBS, and microsomes of the membrane fraction prepared according to standard procedures and stored at −80°C [31]. Briefly, pellets were homogenized for 30 s in 0.1M Na/K-phosphate buffer, pH 7.4 containing 1mM EDTA and DTT and 200mM sucrose using a Fastprep (MP Biomedicals), filtered through miracloth and centrifuging for 10 min at 680 g at 4°C. The supernatant was then centrifuged for 1 h at 100,000 g at 4°C, with the pellet subsequently resuspended in 0.1M Na/K-phosphate buffer, pH 7.6 containing 1mM EDTA and DTT and 10% glycerol using a Dounce tissue grinder. P450 expression and functionality was estimated by measuring CO-difference spectra in reduced samples using a Specord 200 Plus Spectrophotometer (Analytik Jena) and scanning from 500 nm to 400 nm. The protein content of samples was determined using Bradford reagent (Sigma) and bovine serum albumin (BSA) as a reference.
(§2) The total assay volume was 200 μL using three replicates for each data point. […] The assay was stopped by the addition of ice-cold acetonitrile (to 80% final concentration), centrifuged for 10 min at 3000 g and the supernatant subsequently analyzed by tandem mass spectrometry as described previously. […] Substrate turnover from two independent reactions were plotted versus controls and Michaelis-Menten kinetics determined using GraphPad Prism version 7 (GraphPad Software, CA, USA).

Data set [2] has as its system CYP9Q5. In words: Metabolism by recombinant CYP9Q5/CPR microsomes, LC-MS/MS.
Description: as §1, §2

The subject of data set [3] is CYP6AS5. In words: Metabolism by recombinant CYP6AS5/CPR microsomes, LC-MS/MS. As to conditions: thiacloprid hydroxylation.
Description: All bee P450 (see Table S3 for accession numbers) and house fly NADPH-dependent cytochrome P450 reductase (CPR) (GenBank accession number Q07994) genes were obtained by gene synthesis (Geneart, CA, USA) and inserted into the pDEST8 expression vector (Invitrogen). Codon optimization of all bee genes was used to optimize expression in lepidopteran cell lines. The PFastbac1 vector with no inserted DNA was used to produce a control virus. The recombinant baculovirus DNA was constructed and transfected into Trichoplusia ni (High five cells, Thermo Fisher) using the Bac-to-Bac baculovirus expression system (Invitrogen) according to the manufacturer’s instructions. The titer of the recombinant virus was determined following protocols of the supplier. […] The protein content of samples was determined using Bradford reagent (Sigma) and bovine serum albumin (BSA) as a reference.
as §2

Where [4] appears, read: apparent value, mean ± SD (n=3), decimal commas.
[5] abbreviates: hydroxylation (thiacloprid) or N-desmethylation (acetamiprid).

CYP9Q4, sequence (Q07994 whole entry): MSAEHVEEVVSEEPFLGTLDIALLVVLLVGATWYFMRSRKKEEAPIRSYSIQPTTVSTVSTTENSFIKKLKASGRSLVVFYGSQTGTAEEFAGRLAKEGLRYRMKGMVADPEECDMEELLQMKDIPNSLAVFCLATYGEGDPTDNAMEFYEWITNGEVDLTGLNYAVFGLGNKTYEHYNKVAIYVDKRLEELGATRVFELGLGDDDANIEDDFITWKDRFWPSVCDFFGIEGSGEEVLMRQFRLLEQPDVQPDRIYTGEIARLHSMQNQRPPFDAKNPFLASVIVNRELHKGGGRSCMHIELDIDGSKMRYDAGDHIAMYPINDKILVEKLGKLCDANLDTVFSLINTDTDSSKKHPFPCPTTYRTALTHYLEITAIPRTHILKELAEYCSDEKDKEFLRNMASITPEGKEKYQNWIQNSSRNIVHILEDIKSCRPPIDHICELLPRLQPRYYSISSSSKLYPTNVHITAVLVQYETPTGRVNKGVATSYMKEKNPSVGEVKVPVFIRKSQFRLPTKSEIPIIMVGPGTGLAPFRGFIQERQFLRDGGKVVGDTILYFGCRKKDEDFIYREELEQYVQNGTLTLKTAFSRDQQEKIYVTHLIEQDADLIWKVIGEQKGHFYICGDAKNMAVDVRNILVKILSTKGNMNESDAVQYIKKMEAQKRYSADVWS
CYP9Q4, sequence (A0A9B0BBT5 entry or part of it): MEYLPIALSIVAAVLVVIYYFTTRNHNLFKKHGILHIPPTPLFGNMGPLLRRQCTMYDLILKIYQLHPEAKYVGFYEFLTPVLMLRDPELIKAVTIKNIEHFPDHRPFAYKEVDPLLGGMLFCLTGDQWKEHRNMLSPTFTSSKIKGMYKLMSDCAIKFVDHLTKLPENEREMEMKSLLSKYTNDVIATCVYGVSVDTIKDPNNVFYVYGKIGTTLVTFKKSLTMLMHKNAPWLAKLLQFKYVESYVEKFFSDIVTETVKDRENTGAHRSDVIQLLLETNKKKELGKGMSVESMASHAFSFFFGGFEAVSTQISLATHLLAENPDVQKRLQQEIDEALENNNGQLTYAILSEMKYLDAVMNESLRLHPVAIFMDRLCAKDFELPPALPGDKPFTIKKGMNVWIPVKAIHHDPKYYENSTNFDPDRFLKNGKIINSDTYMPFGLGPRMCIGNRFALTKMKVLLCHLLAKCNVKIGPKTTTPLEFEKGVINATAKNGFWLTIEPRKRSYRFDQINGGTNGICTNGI

For the compound `N#C/N=C1\SCCN1Cc1ccc(Cl)nc1` [thiacloprid], the Km at 45 min in data set [1] (Bombus terrestris) came out at 11.8 µM; in data set [2] (Bombus terrestris), 30 µM. In addition, the “Vmax, thiacloprid hydroxylation” value in data set [1] (setting [4]) was 18,94±0,64 pmol min-1 mg-1; in data set [2] (setting [4]) it was 4,29±0,71 pmol min-1 mg-1. The “metabolism by the recombinant P450 (in words)” value is given as “metabolize thiacloprid to its 5-hydroxy form” in data set [1] (setting [5]), “metabolize thiacloprid to its 5-hydroxy form” in data set [2] (setting [5]) and “weak activity” in data set [3].
